Earlier results in patent publication US20220370332A1, “PRODUCT FOR DYEING KERATINOUS MATERIAL, CONTAINING AMINOSILICONE, A CHROMOPHORIC COMPOUND, PRESERVATIVE AND ETHOXYLATED FATTY ALCOHOL” (Henkel AG & Co. KGaA, priority 2019, published 2022).

conditions: 25° C.

SMILES | solubility in water
O=C([O-])c1c(Cl)c(Cl)c(Cl)c(Cl)c1-c1c2c(Br)cc(=O)c(Br)c-2oc2c(Br)c(O)cc(Br)c12.O=C([O-])c1c(Cl)c(Cl)c(Cl)c(Cl)c1-c1c2c(Br)cc(=O)c(Br)c-2oc2c(Br)c(O)cc(Br)c12.[Na+].[Na+] [Acid Red 92, disodium salt of 3,4,5,6-tetrachloro-2-(1,4,5,8-tetrabromo-6-hydroxy-3-oxoxanthen-9-yl)benzoic acid] | greater than 10 g/L
O=S(=O)([O-])c1ccc(N=Nc2c(O)ccc3ccccc23)cc1.[Na+] [Acid Orange 7, sodium salt of 4-[(2-hydroxy-1-naphthyl)azo]benzene sulphonate] | more than 7 g/L
CCN(Cc1cccc(S(=O)(=O)[O-])c1)c1ccc(C(=C2C=CC(=[N+](CC)Cc3cccc(S(=O)(=O)[O-])c3)C=C2)c2ccccc2S(=O)(=O)[O-])cc1.[Na+].[Na+] [Acid Blue 9] | more than 20 % by weight

Further lines, results first:

solubility in water | SMILES
highly soluble in water | O=C([O-])C1=NN(c2ccc(S(=O)(=O)[O-])cc2)C(=O)C1N=Nc1ccc(S(=O)(=O)[O-])cc1.[Na+].[Na+].[Na+] (centres unmarked) [Acid Yellow 23, trisodium salt of 4,5-dihydro-5-oxo-1-(4-sulfophenyl)-4-((4-sulfophenyl)azo)-1H-pyrazole-3-carboxylic acid]
2500 µg/mL | Nc1cc(S(=O)(=O)[O-])cc2cc(S(=O)(=O)[O-])c(N=Nc3ccccc3)c(O)c12.[Na+].[Na+] [Acid Red 33, diantrium salt of 5-amino-4-hydroxy-3-(phenylazo)-naphthalene-2,7-disulphonate]
